Values quoted from earlier work in patent publication US20200315965A1, “NANOEMULSION CONCENTRATE FORMULATIONS AND METHODS” (priority 2019, published 2020).

Conditions: water

CCCCCc1cc(O)c2c(c1)OC(C)(C)[C@@H]1CCC(C)=C[C@@H]21 [THC, tetrahydrocannabinol]
aqueous solubility: ~0.003 milligrams per milliliter
